The subject of test [1] is antigen-specific CD8+ T-cell expansion. The conditions noted are these: in combination with adenovirus-based or irradiated sporozoite-based malaria vaccine; immune-competent mice; cited from earlier work.
Test [2] has as its system splenic PyCS-specific, IFN-γ-secreting CD8+ T cells. The arrangement: species or system mice. The note with it: mouse, in vivo, sc.

Regarding “CRRTSTGQISTLRVNITAPLSQ [LD01, synthetic peptide used as positive control]”, the “antigen-specific CD8+ T-cell expansion” value in test [1] is reported as “enhances”. Further, the “antigen-specific CD8+ T cell numbers relative to AdPyCS alone” value in test [2] was “significantly increased”.

Values taken from patent US20240344082A1, “VIRAL […] USE IN ENHANCING T-CELL PRIMING DURING VACCINATION” (GeoVax, Inc., priority 2021, published 2024).
